Patent US8748407B2 (The Research Foundation for the State University of New York, priority 2010, dated 2014)

Target: T1, GluA2Qflip (Rattus norvegicus, UniProt P19491)
T1 construct: expressed in transfected cells; host or cells: HEK-293S
Test: Whole-cell current recording, GluA2Qflip in HEK-293 cells
Format: cell-based
Source text: The original cDNAs in pBlueScript encoding rat GluA1, 2 and 3 AMPA receptors and GluK2 kainate receptor were kindly provided by Steve Heinemann. The GluA4 DNA plasmid was kindly provided by Peter Seeburg. The GluK1 plasmid was kindly provided by Geoffrey Swanson. The cDNAs of all three NMDA receptor subunits were gifts from John Woodward. All DNA plasmids were propagated using Escherichia coli host (DH5α) and purified using QIAGEN DNA purification kits.
All of the receptors were transiently expressed in HEK-293S cell. HEK-293S cells were maintained in Dulbecco's modified Eagle's medium (DMEM) supplemented with 10% fetal bovine serum and 1% penicillin in a 37° C., 5% CO2, humidified incubator. Receptors were transiently transfected by using calcium phosphate or lipofectamine 2000 (Invitrogen). The DNA plasmids encoding green fluorescent protein (GFP) and T-antigen (TAg) were cotransfected in HEK-293 S cells. GFP was used as a transfection marker for cell recording, and TAg was cotransfected to potentiate the receptor expression at the single-cell level^6. Transfected cells were allowed to grow for 48 hour before they were used for recording.
The procedure for whole-cell current recording to assay the inhibitory property of an RNA aptamer is known to those of skill in the art and has been previously described^7. […] The extracellular buffer composition is described above (see “Receptor Preparation”). For recording of the NMDA channels, the intracellualr solution contained (in mM) 140 CsCl, 1 MgCl2, 0.1 EGTA, and 10 HEPES (pH 7.2 adjusted by […]), while the extracellular solution contained (in mM) 135 NaCl, 5.4 KCl, 1.8 CaCl2, 10 glucose and 5 HEPES (pH 7.2 adjusted by NaOH). In the extracellular buffer, 2 μM of glycine was added (glycine was the co-agonist of NMDA receptor)^2. All reagents including aptamer were dissolved in the corresponding extracellular buffer and used. […] The whole-cell current was recorded using an Axopatch-200B amplifier at a cutoff frequency of 2-20 kHz by a built-in, eight-pole Bessel filter and digitized at 5-50 kHz sampling frequency using a Digidata 1322A from Axon Instruments (Molecular Devices, Sunnyvale, Calif.). The pClamp 8 software (Molecular Devices) was used for data acquisition. All whole-cell recordings were at −60 mV and 22° C.
To deliver AG56 to a HEK-293 cell, a “Ψ”-shaped flow device was used. […] In all experiments reported in this study, a 6-second preincubation flow protocol was used for full aptamer preincubation. […] The corrected current amplitude was used for data analysis.
Determination of KI,app by the ratio of the current amplitude in the absence and presence of inhibitor or A/A(I)—see FIG. 5 in the text. Equ. 10a and 10b were derived based on one inhibitor binding to the receptor. KI, app is the apparent inhibition constant for the inhibitor; other terms have been defined previously.
Under this condition, the inhibition constant for the closed-channel conformation was determined from the ratio of the amplitude according to equ. 10a and 10b. Likewise, at a saturating ligand concentration (i.e., L>>K1), the majority of the receptors were in the open-channel state. Consequently, the inhibition constant associated with the open-channel conformation was measured. The basis of using the two ligand concentrations that corresponded to ˜4% and ˜96% fraction of the open-channel receptor form^7 to determine the corresponding inhibition constant was a putative difference in inhibition constant between the closed-channel and the open-channel conformation. At those low and high ligand concentrations^7, the apparent inhibition constants obtained were considered pertinent to the closed-channel and the open-channel conformations, respectively. Examples of using the current amplitude to determine the inhibition constant for an inhibitor include our previous study of two 2,3-benzodiazepine derivatives with the GluA2Qflip AMPA receptor^15.

T1 sequence (P19491 22-883 isoform P19491-2): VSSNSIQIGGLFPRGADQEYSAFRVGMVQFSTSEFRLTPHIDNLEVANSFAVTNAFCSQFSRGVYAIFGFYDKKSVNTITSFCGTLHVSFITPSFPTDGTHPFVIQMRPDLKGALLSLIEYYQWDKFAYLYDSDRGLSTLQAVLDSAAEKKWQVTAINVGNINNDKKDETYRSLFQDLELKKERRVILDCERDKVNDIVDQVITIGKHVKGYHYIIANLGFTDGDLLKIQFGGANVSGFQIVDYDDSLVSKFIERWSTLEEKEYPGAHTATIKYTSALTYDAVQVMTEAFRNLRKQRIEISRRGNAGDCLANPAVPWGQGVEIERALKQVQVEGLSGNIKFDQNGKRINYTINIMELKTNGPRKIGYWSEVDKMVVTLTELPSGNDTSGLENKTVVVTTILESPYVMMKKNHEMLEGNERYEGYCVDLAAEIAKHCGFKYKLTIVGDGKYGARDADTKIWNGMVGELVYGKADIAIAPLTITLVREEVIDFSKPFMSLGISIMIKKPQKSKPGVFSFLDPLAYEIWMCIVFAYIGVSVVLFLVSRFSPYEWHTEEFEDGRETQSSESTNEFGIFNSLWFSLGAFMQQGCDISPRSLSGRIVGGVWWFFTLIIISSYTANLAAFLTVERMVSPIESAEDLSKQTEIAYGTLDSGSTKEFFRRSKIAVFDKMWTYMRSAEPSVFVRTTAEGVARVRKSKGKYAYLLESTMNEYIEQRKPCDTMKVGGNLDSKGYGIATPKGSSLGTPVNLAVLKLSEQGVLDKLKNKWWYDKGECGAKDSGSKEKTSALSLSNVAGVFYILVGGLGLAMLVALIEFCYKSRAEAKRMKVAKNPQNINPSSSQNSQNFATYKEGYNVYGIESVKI

Substance: AG56: 56-nucleotide truncated version of AG1407, RNA aptamer (GGGAGAUUGUGAAGCGUAGGCUCGAGUUUGUCCCGCGAGCCAAAGAUUCCAGACCC; RNA, backbone not given here)
- inhibitory function of shorter versions of AG1407, based on A/A(I) (GluA2Qflip): functional sequence
- inhibition of the open-channel conformation (GluA2Qflip, high glutamate concentration): selectively inhibited the open-channel
- inhibition of the closed-channel conformation (GluA2Qflip, low glutamate concentration): did not inhibit
- Ki (open-channel conformation of GluA2Qflip, 3 mM glutamate, read-out: inhibition constant): 950 ± 200 nM
